Assay results published in ChEMBL document CHEMBL5241127, “Design, synthesis and biological evaluation of novel 9-N-substituted-13-alkylberberine derivatives from Chinese medicine as anti-hepatocellular carcinoma agents” (Bioorg Med Chem, 2023).

Legend:
[1] = system: HepG2; experiment: Antiproliferative activity against human HepG2 cells assessed as inhibition of cell growth incubated for 72 hrs by MTT assay; format: functional, cell-based; settings: HepG2, 72 h
[2] = Antiproliferative activity against human LX2 cells assessed as inhibition of cell growth incubated for 72 hrs by MTT assay; format: functional, cell-based; settings: LX-2, 72 h
[3] = system: H22; experiment: Antitumor activity against […] xenografted in ICR mouse assessed as inhibition of tumor growth at 20 mg/kg, iv administered for 21 days and measured every 2 days relative to control; format: functional; settings: H22, 504 h, time 21 day, read-out: TGI
[4] = system: Quadruplex DNA; experiment: Binding affinity to c-MYC G4-quadruplex DNA (unknown origin) using fluorescent tagged FPu18T model assessed as stabilization by measuring change in melting temperature at 2 uM by fluorescence based analysis; format: nucleic-acid assay
[5] = system: Huh-7; experiment: Antiproliferative activity against human Huh-7 cells assessed as inhibition of cell growth incubated for 72 hrs by MTT assay; format: functional, cell-based; settings: Huh-7, 72 h
[6] = system: HepG2; experiment: Antiproliferative activity against cisplatin-resistant human HepG2 cells assessed as inhibition of cell growth incubated for 72 hrs by MTT assay; format: functional, cell-based; settings: HepG2, 72 h
[7] = system: DNA; experiment: Binding affinity to duplex DNA (unknown origin) using fluorescent tagged F10T model assessed as stabilization by measuring change in melting temperature at 2 uM by fluorescence based analysis; format: nucleic-acid assay
[8] = system: Hep 3B2; experiment: Antiproliferative activity against human Hep3B cells assessed as inhibition of cell growth incubated for 72 hrs by MTT assay; format: functional, cell-based
[9] = system: SK-HEP1; experiment: Antiproliferative activity against human SK-HEP1 cells assessed as inhibition of cell growth incubated for 72 hrs by MTT assay; format: functional, cell-based; settings: SK-HEP1, 72 h

Work on `CCCCCCc1c2[n+](cc3c(NCCO)c(OC)ccc13)CCc1cc3c(cc1-2)OCO3` yielded an IC50 [1] of 4.52 µM.
In the case of `COc1ccc2cc3[n+](cc2c1OC)CCc1cc2c(cc1-3)OCO2` [BERBERINE], the IC50 [2] is reported as > 50 µM, the inhibition in vivo at 20 mg/kg [3] is reported as 42.3% and the ΔTm [4] is reported as 1.6 °C. For the same compound, the IC50 [5] was > 50 µM, the IC50 [6] was > 50 µM and the IC50 [1] was > 50 µM. For the same compound, the ΔTm [7] was 2.1 °C, the IC50 [8] was > 50 µM and the IC50 [9] was > 50 µM.
For `CCCCCCCCc1c2[n+](cc3c(NCCN)c(OC)ccc13)CCc1cc3c(cc1-2)OCO3`, the IC50 [1] was 8.61 µM.
For `CCCCCCCCc1c2[n+](cc3c(NCCCCN)c(OC)ccc13)CCc1cc3c(cc1-2)OCO3`, the IC50 [1] was 5.17 µM.
